Results from patent publication US9856232B1, “Dihydropyrimidinone derivatives” (KING SAUD UNIVERSITY, priority 2017, dated 2018).
Marks after values point to notes of the source that are not given here.

How the values were obtained:
mouse = assay: in vivo; details: 24 h
Excerpt: (§1) At the end of the study period, expired animals were counted for the calculation of LD50. The following arithmetic method from Karber (Arch. Exptl. Pathol. Pharmakol, […], 162, 480-483) was used for the determination of LD50: LD50=LD100−Σ×(a×b)/n
(§2) wherein n=total number of animals in a group; a=the difference between two successive doses of administered extract/substance; b=the average number of dead animals in two successive doses; and LD100=lethal dose causing the 100% death of all test animals.
(§3) Table 8 provides the LD50 values of the compounds determined by the Karber method.

in vivo = details: mouse
Excerpt: as §1, §2, §3

[1] = tested on: gastric secretion in pylorus-ligated Shay rats; assay: Pylorus-ligated rats: gastric secretion, acidity and lesion index; assay type: in vivo, Albino Wistar rats; parameters: Ulcer Index, pylorus-ligated Shay rats: scale not given here; details: i.p., 6 h after pylorus ligation, mean ± SE
Protocol: (§4) Albino Wistar rats of either sex, approximately the same age, weighing 150 to 200 g and fed on a diet of standard chow were used in this study. They were randomly divided into experimental groups of six rats each. Compounds (N-1 to N-18) 12.5, 25, and 50 mg/kg were given orally in the anti-ulcer studies and intraperitoneally for gastric secretion evaluation. The rats were sacrificed, and the stomachs removed and opened along the greater curvature, After washing with saline, the gastric lesions were quantified by a person unaware of the treatments. The animal study protocol was approved by the Research and Ethics Committee of the Experimental Animal Care Society, College of Pharmacy, King Saud University, Riyadh, Saudi Arabia.
Pylorus-ligated rats: Rats were fasted for 36 hours with access to water ad libitum before pylorus ligation under ether anesthesia was carried out. Care was taken not to cause bleeding or to occlude blood vessels. Compounds (N-3, N-8, N-11, and N-15) were administered intraperitoneally immediately after pylorus ligation. The rats were sacrificed at 6 hours after pylorus ligation. The stomachs were removed, the contents were collected, volumes measured, centrifuged and analyzed for tritratable acidity against […], NaOH at pH 7.0. Table 5 provides the effect of compounds on gastric secretion, acidity, and gastric lesion index in pylorus-ligated Shay rats (mean±SE).

[2] = tested on: Hypothermic restraint stress-induced intraluminal bleeding and gastric lesion; assay: Hypothermic restraint stress-induced ulcers; assay type: in vivo, Albino Wistar rats; parameters: Gastric Lesion Ulcer Index: scale not given here; details: hypothermic restraint 3 h, mean ± SE
[3] = tested on: gastric mucosa of rats treated with 80% Ethanol; assay: Histopathological evaluation of gastric tissue; assay type: in vivo, Albino Wistar rats; details: 50 mg/kg; FIG. 15B-15F
Protocol: Histopathological evaluation: Gastric tissue samples were fixed in neutral buffered formalin for 24 hours. Sections of gastric tissue were histopathologically examined to study the ulcerogenic and/or anti-ulcerogenic activity of compounds (N-3, N-8, N-11, and N-15). The tissues were fixed in 10% buffered formalin and processed using a VIP tissue processor. The processed tissues were embedded in paraffin blocks and sections about […] thick were cut using an American optical rotary microtome. These sections were stained with haematoxylin and eosin using routine procedures. The slides were examined microscopically for pathomorphological changes such as congestion, hemorrhage, edema, and erosions using an arbitrary scale for severity assessment of these changes (FIGS. 3-14).

[4] = tested on: total protein in stomach tissue, induced by 80% ethanol; assay: Total protein in stomach tissue; assay type: in vivo, Albino Wistar rats; details: mean ± SE
[5] = tested on: gastric mucosal non-protein sulfhydryls, induced by 80% ethanol; assay: Estimation of non-protein sulfhydryls (NP-SH); assay type: in vivo, Albino Wistar rats; details: stomach tissue, 80% ethanol-treated rats, mean ± SE
Protocol: as §4
Estimation of non-protein sulfhydryls (NP_SH): Gastric mucosal non-protein sulfhydryls were measured according to the method. The glandular part of the stomach was homogenized in ice-cold 0.02 mmol/L ethylenediaminetetraacetic acid (EDTA). Aliquots of 5 mL of the homogenates were mixed in 15 mL test tubes with 4 mL of distilled water and 1 mL of 50% trichloroacetic acid (TCA). The tubes were shaken intermittently for 10 minutes and centrifuged at 3000 r/min. Two milliliters of supernatant were mixed with 4 mL of 0.4 mol/L Tris buffer at pH 8.9. Then 0.1 ML of 5, 5′-dithio-bis (2-nitrobenzoic acid) (DTNB) was added and the sample was shaken. The absorbance was measured within 5 minutes of DTNB addition at 412 nm against a reagent blank.

[6] = tested on: malondialdehyde in stomach tissue, induced by 80% ethanol; assay: Determination of malondialdehyde (MDA); assay type: in vivo, Albino Wistar rats; details: mean ± SE
Protocol: as §4
Determination of malondialdehyde (MDA): The animals were sacrificed 1 hour after ethanol administration. The stomachs were removed and each was homogenized in 0.15 mol/L KCl (at 4° C.) in a Potter-Elvehjem type C homogenizer to give a 10% w/v homogenate. Aliquots of homogenate 1 mL in volume were incubated at 37° C. for 3 hours in a metabolic shaker. Then 1 mL of 10% aqueous TCA was added and mixed. The mixture was then centrifuged at 800 g for 10 minutes. One milliliter of the supernatant was removed and mixed with 1 mL of 0.67% w/v thiobarbituric acid in water and placed in a boiling water bath for 10 minutes. The mixture was cooled and diluted with 1 mL distilled water. The absorbance of the solution was then read at 535 nm. The content of malondialdehyde (nmol/g wet tissue) (index of the magnitude of lipid peroxidation) was then calculated, by reference to a standard curve of malondialdehyde solution. Table 7 provides the effect of compounds on the levels of MDA, NP_SH, and total protein in stomach tissue induced by 80% ethanol (mean±SE).

[7] = dose 12.5, 80% ethanol-treated rats
[8] = dose 25, 80% ethanol-treated rats
[9] = dose 50, 80% ethanol-treated rats

## COc1ccc(C2NC(=O)NC=C2C(=O)c2ccc(N3CCCCC3)cc2)c(OC)c1OC (centres unmarked) [Compound N-15, 4-(2,3,4-Trimethoxyphenyl)-5-[4-(piperidin-1-yl)benzoyl]-3,4-dihydropyrimidin-2(1H)-one]
mouse; 5 mg/kg
  Dead (of 10 animals): 0
mouse; 25 mg/kg
  Dead (of 10 animals): 1
mouse; 50 mg/kg
  Dead (of 10 animals): 3
mouse; 100 mg/kg
  Dead (of 10 animals): 4
mouse; 200 mg/kg
  Dead (of 10 animals): 9
mouse; 300 mg/kg
  Dead (of 10 animals): 10
In vivo
  LD50 at 24 h: 116 mg/kg
[1]; 12.5 mg/kg
  Titratable Acidity: 116.11 ± 2.64 mEg/L
  Ulcer Index, pylorus-ligated Shay rats: 1.83 ± 0.304
  Volume of Gastric Content: 6.68 ± 0.18 mL
[1]; 25 mg/kg
  Titratable Acidity: 86.11 ± 3.98 mEg/L
  Ulcer Index, pylorus-ligated Shay rats: 1.50 ± 0.22
  Volume of Gastric Content: 5.50 ± 0.24 mL
[1]; 50 mg/kg
  Titratable Acidity: 73.33 ± 2.43 mEg/L
  Ulcer Index, pylorus-ligated Shay rats: 1.00 ± 0.36
  Volume of Gastric Content: 4.76 ± 0.23 mL
[2]; 12.5 mg/kg
  Gastric Lesion Ulcer Index: 25.66 ± 1.08
  Intraluminal Bleeding Score: 2.16 ± 0.30
[2]; 25 mg/kg
  Gastric Lesion Ulcer Index: 16.66 ± 0.33
  Intraluminal Bleeding Score: 1.66 ± 0.21
[2]; 50 mg/kg
  Gastric Lesion Ulcer Index: 12.33 ± 0.84
  Intraluminal Bleeding Score: 1.33 ± 0.33
[3]
  Gastric section, effect on gastric mucosa (histology): intact normal mucosa
[4]; [7]
  Total Protein: 71.45 ± 1.43*^b g/L
[4]; [8]
  Total Protein: 81.43 ± 3.65***^b g/L
[4]; [9]
  Total Protein: 96.60 ± 1.18***^b g/L
[5]; dose 12.5
  NP-SH: 3.38 ± 0.07^b nmol/g
[5]; dose 25
  NP-SH: 4.29 ± 0.24**^b nmol/g
[5]; dose 50
  NP-SH: 4.92 ± 0.30***^b nmol/g
[6]; [7]
  MDA: 3.51 ± 0.08***^b nmol/g
[6]; [8]
  MDA: 2.72 ± 0.10***^b nmol/g
[6]; [9]
  MDA: 1.90 ± 0.06***^b nmol/g
